Reference: US8598355B2, “Amide compound” (Astellas Pharma Inc., priority 2008, dated 2013)
pKi: −log10 of the molar value.

Legend:
rat EP4 receptor [1] = molecular target: T1, rat EP4 receptor (Rattus norvegicus, UniProt P43114); assay: Evaluation test of rat EP4 receptor affinity ([3H]PGE2 binding, membrane fraction of HEK293 cells expressing rat EP4); set-up: expressed in transfected cells; host or cells: HEK293 cells, transient transfection with Lipofectamine 2000; membrane fraction; conditions: [3H]PGE2 0.3 nM
T1 sequence (P43114 whole entry): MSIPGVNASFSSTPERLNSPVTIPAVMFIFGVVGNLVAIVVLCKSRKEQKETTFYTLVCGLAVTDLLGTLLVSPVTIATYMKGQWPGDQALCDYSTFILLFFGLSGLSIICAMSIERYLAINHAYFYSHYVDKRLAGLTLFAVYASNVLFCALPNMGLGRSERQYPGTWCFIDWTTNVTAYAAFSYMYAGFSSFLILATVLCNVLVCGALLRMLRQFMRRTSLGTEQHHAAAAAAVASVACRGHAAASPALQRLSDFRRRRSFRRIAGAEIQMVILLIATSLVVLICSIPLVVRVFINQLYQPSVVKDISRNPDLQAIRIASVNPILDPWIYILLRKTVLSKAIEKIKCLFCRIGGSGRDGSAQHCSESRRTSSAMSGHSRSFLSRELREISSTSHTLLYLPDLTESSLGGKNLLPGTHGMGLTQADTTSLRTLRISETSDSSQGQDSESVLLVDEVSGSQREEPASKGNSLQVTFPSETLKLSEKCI
Method: Evaluation Test of Rat EP4 Receptor Affinity
Cell Culturing and Transfection
Using a 10 cm collagen-coated dish (Asahi Glass), HEK293 cells were cultured in D-MEM culture medium, the culture medium was removed at a confluence (90 to 100% density state) and washed with a phosphate buffer saline (PBS), and then the cells were detached with N,N,N′,N′-tetrakis(carboxymethyl)ethylenediamine (EDTA). The number of the cells were counted and seeded on a 15 cm collagen-coated dish to a confluence of 70%. On the next day, to an Opti-MEM culture medium at 1.2 mL/dish was added Lipofectamine 2000 (Invitrogen) at 60 μL/dish, followed by leaving to stand at room temperature for 5 minutes. A plasmid in which rat EP4 (Sequence Number 1) had been inserted into a TA cloning site of pcDNA3.1-V5-His-topo was added thereto at 15 μg/dish. After leaving to stand at room temperature for 30 minutes, the resultant was added to the dish and cultured for 20 to 24 hours. The cell culture was carried out in a CO2 incubator (37° C., 5% CO2).
Preparation of Membrane Fraction
The culture medium was removed by suction, 10 mL of cooled PBS was added thereto per 15 cm dish, and the cells were scraped using a cell scraper (Sumitomo Bakelite). They were washed with cooled PBS (1,200 rpm, 4° C., 5 min), and then suspended in 6 mL of cooled 20 mM Tris-HCl (pH 7.4; Nakalai Tesque Inc., including 5 mM EDTA (Nakalai Tesque Inc.) per dish and the resultant was homogenized using a Polytron and the homogenate was centrifuged (26,000 rpm, 20 min, 4° C.). The obtained precipitate was resuspended in cooled 20 mM Tris-HCl and homogenized again using a Polytron, and the homogenate was centrifuged (26,000 rpm, 20 min, 4° C.). The obtained precipitate was resuspended in 50 mM HEPES (pH 7.5; Dojindo Laboratories) at 1 mL per dish, homogenized using a Polytron, and freeze-stored at −80° C. as a membrane fraction. At this time, a part thereof was used for the measurement of the protein concentration. Measurement of the protein concentration was carried out in duplicate using a Bio-Rad Protein assay kit (Bio-Rad Laboratories) in accordance with the appended standard Protocol.
[^3H]PGE2 50 μL (final concentration 0.3 nM; Perkin Elmer), 100 μL (20 μg/well) of a membrane fraction prepared from the rat EP4 expression cell and 50 μL of a test compound were mixed in a 96-well microplate (Sumitomo Bakelite), incubated at room temperature for 1 hour, filtered by suction on a UniFilter-96 GF/B (Perkin Elmer) using a FilterMate Harvester (Perkin Elmer), and then washed three times with 300 μL/well of a cooled assay buffer. Dilution of [^3H]PGE2 and the membrane fraction was carried out using an assay buffer (50 mM HEPES, 10 mM MgCl2), and dilution of the test compound and the unlabeled PGE2 was carried out using DMSO and an assay buffer. Further, in the case of the addition of a human serum albumin (HSA), dilution was carried out using an assay buffer containing 4% HSA (final concentration 1%; Sigma). The UniFilter-96 GF/B was treated preliminarily by washing twice with 200 μL/well of a cooled assay buffer. The UniFilter-96 GF/B after filtration was dried in a dryer overnight, 50 μL/well of MicroScint20 (Perkin Elmer) was added thereto, and then the radioactivity was measured using a TopCount (Perkin Elmer). For measurement of the non-specific binding, an unlabeled PGE2 (final concentration 1 μM; Cayman) was added. All of the measurements were carried out in duplicate, and the specific binding amount was determined by subtracting the non-specific binding amount from the total binding amount. The Ki value was calculated according to the general methods.
In the connection, Ex represents the below-described Example Compound number.

rat EP4 receptor [2] = molecular target: T1, rat EP4 receptor; assay: In vivo rat EP4 receptor antagonistic activity (ONO-4819/LPS, plasma TNF-α); conditions: SD rat, oral
Method: Evaluation Test of In Vivo Rat EP4 Receptor Antagonistic Activity
A solution of PEG 400:20% Tween 80:aqueous 1 M NaHCO3 solution=1:4:5 of a test compound was orally administered to a SD rat (male, 6-week old) under non-fasting conditions, and after 1 hour, ONO-4819 was administered subcutaneously to the back of the rat. After 30 minutes, Lipopolysaccharide (LPS, 0.01 mg/kg) was administered to the tail vein without anesthesia, and after 60 minutes, 0.5 mL of heparin blood was collected from the fundus under ether anesthesia. The blood sample was centrifuged (3000 rpm, 10 minutes) to separate the plasma, and then the TNF-α concentration in the rat plasma was measured by an ELISA kit (see Hepatology Research Journal, vol. 21, 252-260, 2001). A value obtained by subtracting the TNF-α concentration of the group treated with ONO-4819 from the TNF-α concentration of the group not treated with ONO-4819 was taken as 100%, and the inhibitory rates to the value were calculated for the test compounds.
In this connection, Ex represents the below-described Example compound number.

Compound | pKi (rat EP4 receptor [1]) | further results
C[C@H](NC(=O)c1cccc2ccn(Cc3ccc(-c4ccccc4)nc3)c12)c1ccc(C(=O)O)cc1 [Example 4, 4-{(1S)-1-[({1-[(6-phenylpyridin-3-yl)methyl]-1H-indol-7-yl}carbonyl)amino]ethyl}benzoic acid] | 9.09 | 
C[C@H](NC(=O)c1cccc2ccn(Cc3ccc(Cl)cc3)c12)c1ccc(C(=O)NS(=O)(=O)CCCO)cc1 [Example 6, 1-(4-chlorobenzyl)-N-[(1S)-1-(4-{[(3-hydroxypropyl)sulfonyl]carbamoyl}phenyl)ethyl]-1H-indole-7-carboxamide] | 7.51 | 
CN(NC(=O)c1cccc2ccn(CCOc3ccc(Cl)cc3)c12)c1ccc(C(=O)O)cc1 [Example 23] | 9.46 | Inhibitory rate (%) (rat EP4 receptor [2]; dose 0.01 mg/kg): 51%
O=C(NC[C@H]1CC[C@H](C(=O)O)CC1)c1cccc2ccn(Cc3ccc(Cl)cc3)c12 [Example 32] | 7.92 | 
O=C(NC[C@H]1CC[C@H](C(=O)O)CC1)c1cc(Cl)cc2ccn(Cc3ccc(Cl)cc3)c12 [Example 52] | 8.74 | 
O=C(NC[C@H]1CC[C@H](C(=O)O)CC1)c1cc(C(F)(F)F)cc2ccn(Cc3ccc(Cl)cc3)c12 [Example 69] | 8.85 | 
Cc1cc(C(=O)NC[C@H]2CC[C@H](C(=O)O)CC2)c2c(ccn2Cc2ccc3ccccc3n2)c1 [Example 96] | 8.77 | Inhibitory rate (%) (rat EP4 receptor [2]; dose 0.01 mg/kg): 57%; melting point: 244 to 245 °C (dec.)
C[C@H](NC(=O)c1cccc2ccn(Cc3ccc(-c4ccccc4)cn3)c12)c1ccc(C(=O)O)cc1 [Example 115] | 9.00 | Inhibitory rate (%) (rat EP4 receptor [2]; dose 0.03 mg/kg): 60%
C[C@H](NC(=O)c1cccc2ccn(Cc3ccc(N4CCCCC4)nc3)c12)c1ccc(C(=O)O)cc1 [Example 132] | 8.59 | 
O=C(NC[C@H]1CC[C@@H](C(=O)O)CC1)c1cccc2ccn(Cc3ccc(Cl)cc3)c12 [Example 137] | 8.04 | 
C[C@H](NC(=O)c1cccc2ccn(Cc3coc(-c4ccccc4)n3)c12)c1ccc(C(=O)O)cc1 [Example 140] | 9.21 | 
O=C(O)c1ccc(CNC(=O)c2cc(Cl)cc3ccn(Cc4cc5ccccc5cn4)c23)cc1 [Example 143] | 9.00 | Inhibitory rate (%) (rat EP4 receptor [2]; dose 0.03 mg/kg): 70%
O=C(NC[C@H]1CC[C@H](C(=O)O)CC1)c1cc(Cl)cc2ccn(Cc3cc4ccccc4cn3)c12 [Example 146] | 8.74 | Inhibitory rate (%) (rat EP4 receptor [2]; dose 0.01 mg/kg): 88%
O=C(NC[C@H]1CC[C@H](C(=O)O)CC1)c1cc(C(F)(F)F)cc2ccn(Cc3cc4ccccc4cn3)c12 [Example 159] | 8.68 | Inhibitory rate (%) (rat EP4 receptor [2]; dose 0.03 mg/kg): 68%
C[C@H](NC(=O)c1cccc2ccn(CCOC3CCCCC3)c12)c1ccc(C(=O)O)cc1 [Example 164] | 8.20 | 
O=C(O)c1ccc(CNC(=O)c2cccc3ccn(Cc4cc5ccccc5o4)c23)cc1 [Example 187] | 9.12 | Inhibitory rate (%) (rat EP4 receptor [2]; dose 0.03 mg/kg): 58%
O=C(NC[C@H]1CC[C@H](C(=O)O)CC1)c1cccc2ccn(Cc3cc4ccccc4o3)c12 [Example 188] | 8.92 | Inhibitory rate (%) (rat EP4 receptor [2]; dose 0.01 mg/kg): 88%
O=C(NC[C@H]1CC[C@H](C(=O)O)CC1)c1cccc2ccn(Cc3cc4ccccc4s3)c12 [Example 206] | 8.92 | Inhibitory rate (%) (rat EP4 receptor [2]; dose 0.01 mg/kg): 72%
CN(NC(=O)c1cccc2ccn(Cc3csc(-c4ccccc4)n3)c12)c1ccc(C(=O)O)cc1 [Example 207] | 8.96 | Inhibitory rate (%) (rat EP4 receptor [2]; dose 0.03 mg/kg): 83%
O=C(O)c1ccc(CNC(=O)c2cc(Cl)cc3ccn(Cc4csc(-c5ccccc5)n4)c23)cc1 [Example 208] | 8.74 | Inhibitory rate (%) (rat EP4 receptor [2]; dose 0.01 mg/kg): 35%

Compound | pKi (rat EP4 receptor [1]) | further results
O=C(NC[C@H]1CC[C@H](C(=O)O)CC1)c1cc(Cl)cc2ccn(Cc3csc(-c4ccccc4)n3)c12 [Example 209] | 8.72 | 
O=C(NC[C@H]1CC[C@H](C(=O)O)CC1)c1cc(Cl)cc2ccn(CCOc3ccc(Cl)cc3)c12 [Example 210] | 8.89 | Inhibitory rate (%) (rat EP4 receptor [2]; dose 0.03 mg/kg): 67%
O=C(O)c1ccc(CNC(=O)c2cc(Cl)cc3ccn(CCOc4ccc(Cl)cc4)c23)cc1 [Example 211] | 8.77 | Inhibitory rate (%) (rat EP4 receptor [2]; dose 0.01 mg/kg): 43%
O=C(O)c1ccc(CNC(=O)c2cc(C(F)(F)F)cc3ccn(Cc4csc(-c5ccccc5)n4)c23)cc1 [Example 212] | 8.62 | Inhibitory rate (%) (rat EP4 receptor [2]; dose 0.01 mg/kg): 52%
O=C(NC[C@H]1CC[C@H](C(=O)O)CC1)c1cc(C(F)(F)F)cc2ccn(Cc3csc(-c4ccccc4)n3)c12 [Example 213] | 8.70 | Inhibitory rate (%) (rat EP4 receptor [2]; dose 0.01 mg/kg): 75%
O=C(NC[C@H]1CC[C@H](C(=O)O)CC1)c1cc(C(F)(F)F)cc2ccn(Cc3ccc(-c4ccccc4)cn3)c12 [Example 214] | 8.66 | Inhibitory rate (%) (rat EP4 receptor [2]; dose 0.01 mg/kg): 62%
O=C(NC[C@H]1CC[C@H](C(=O)O)CC1)c1cc(C(F)(F)F)cc2ccn(Cc3cccc(Cl)n3)c12 [Example 216] | 7.80 | 
O=C(NC[C@H]1CC[C@H](C(=O)O)CC1)c1cc(C(F)(F)F)cc2ccn(Cc3cnc4ccccc4c3)c12 [Example 217] | 8.52 | 
O=C(NC[C@H]1CC[C@H](C(=O)O)CC1)c1cc(C(F)(F)F)cc2ccn(Cc3ccc4cccnc4c3)c12 [Example 218] | 8.54 | 
O=C(NC[C@H]1CC[C@H](C(=O)O)CC1)c1cc(C(F)(F)F)cc2ccn(Cc3cccc4cccnc34)c12 [Example 219] | 8.48 | 
O=C(NC[C@H]1CC[C@H](C(=O)O)CC1)c1cc(C(F)(F)F)cc2ccn(Cc3cccc4cnccc34)c12 [Example 220] | 7.80 | 
O=C(NC[C@H]1CC[C@H](C(=O)O)CC1)c1cc(C(F)(F)F)cc2ccn(Cc3ccc4ncccc4c3)c12 [Example 222] | 8.55 | 
O=C(NC[C@H]1CC[C@H](C(=O)O)CC1)c1cc(C(F)(F)F)cc2ccn(Cc3ccc4ccncc4c3)c12 [Example 223] | 8.46 | 
O=C(NC[C@H]1CC[C@H](C(=O)O)CC1)c1cc(F)cc2ccn(Cc3cc4ccccc4cn3)c12 [Example 225] | 8.68 | Inhibitory rate (%) (rat EP4 receptor [2]; dose 0.003 mg/kg): 77%
O=C(NC[C@H]1CC[C@H](C(=O)O)CC1)c1c(F)ccc2ccn(Cc3cc4ccccc4cn3)c12 [Example 226] | 8.55 | 
O=C(NC[C@H]1CC[C@H](C(=O)O)CC1)c1cc(Cl)cc2ccn(Cc3cc4ccccc4o3)c12 [Example 227] | 8.77 | melting point: 228 to 230 °C
O=C(NC[C@H]1CC[C@H](C(=O)O)CC1)c1cc(C(F)(F)F)cc2ccn(Cc3cc4ccccc4o3)c12 [Example 228] | 8.68 | 
O=C(NC[C@H]1CC[C@H](C(=O)O)CC1)c1cc(C(F)(F)F)cc2ccn(Cc3ccc(Cl)cn3)c12 [Example 229] | 8.41 | melting point: 224 to 226 °C (dec.)
O=C(NC[C@H]1CC[C@H](C(=O)O)CC1)c1cc(C(F)(F)F)cc2ccn(Cc3cc4cc(Cl)ccc4o3)c12 [Example 231] | 8.85 | melting point: 211 to 213 °C
